The values that follow come from US20180200392A1, “DETECTION AND TREATMENT OF RENAL CELL CARCINOMA WITH A SLC6A3 LIGAND LINKED TO A LABEL, CYTOTOXIC OR IMMUNO[…]” (Akuru Pharma AB, priority 2015, published 2018).

The subject of data set [1] is primary ccRCC cells.
Description: (§1) Uptake experiments were performed in cells cultivated in 12-well plates at 37° C. The cells of interest were seeded at 80.000 cells/well 48 h before the uptake experiment was performed. The wells were washed in 1×PBS, followed by a wash in 1 ml of assay buffer (Hanks Balanced Salt Solution (HBSS) with CaCl2 and MgCl2, without phenol red supplemented with 10 mM HEPES, pH 7.4) at 37° C. and then incubated with 0.5 ml of buffer for 5 min. […] All uptake experiments were stopped by removing the uptake buffer and adding 1 ml of ice-cold assay buffer to each well and immediately aspirating the buffer and washing three additional times with 1 ml of ice-cold buffer. The incorporated radioactivity was extracted by solubilising the cells with 1% Triton-X for 1 h at R.T, 6 ml of scintillation fluid was thereafter added. The amount of radioactivity was measured with a Tri-carb 2810TR liquid scintillation analyzer (Perkin Elmer).
For data set [2], the target named is SLC6A3 (Homo sapiens, UniProt Q01959). The data set can be described thus: [3H]dopamine uptake in ccRCC cell lines in the presence of specific SLC6A3 inhibitors. To be noted: GBR12935 30 nM (SKRC10); GBR12909 10-90 nM (KMRC3, SNU-349); 1 h pre-incubation, 5 min uptake; FIG. 8 A-C.
Chain of SLC6A3 (Q01959 whole entry): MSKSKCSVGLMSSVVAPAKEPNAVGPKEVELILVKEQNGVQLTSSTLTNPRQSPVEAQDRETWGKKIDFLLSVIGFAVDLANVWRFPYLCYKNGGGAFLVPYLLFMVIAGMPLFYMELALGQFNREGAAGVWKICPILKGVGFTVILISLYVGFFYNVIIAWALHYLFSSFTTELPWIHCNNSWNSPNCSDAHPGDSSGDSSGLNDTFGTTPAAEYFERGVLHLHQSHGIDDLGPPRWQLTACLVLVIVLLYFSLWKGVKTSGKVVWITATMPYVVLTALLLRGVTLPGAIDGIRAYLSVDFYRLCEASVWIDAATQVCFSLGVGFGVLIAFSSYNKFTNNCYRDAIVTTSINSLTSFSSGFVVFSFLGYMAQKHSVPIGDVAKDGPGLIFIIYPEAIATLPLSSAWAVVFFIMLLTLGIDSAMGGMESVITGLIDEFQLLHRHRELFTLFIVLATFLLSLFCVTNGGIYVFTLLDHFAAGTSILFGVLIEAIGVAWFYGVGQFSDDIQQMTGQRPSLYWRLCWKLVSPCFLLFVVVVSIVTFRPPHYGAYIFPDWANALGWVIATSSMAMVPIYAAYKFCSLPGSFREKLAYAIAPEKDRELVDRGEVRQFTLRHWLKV
Description: Data presented as mean±SEM.
as §1
Data set [3] deals with ccRCC cell lines. Particulars: 7 nM [3H]dopamine; uptake correlates with SLC6A3 expression level.
Description: as §1
For data set [4], the system named is KMRC-3 cells. The data set can be described thus: SPECT/CT imaging of mice with orthotopically injected KMRC-3 ccRCC cells. The data set is classed as in vivo. To be noted: 5.36 MBq injected 13 weeks after cell injection, imaged after 1 h and 35 min, FIG. 4. The protocol:
FIG. 4: SPECT/CT images of a mouse injected with 5.36 MBq (^123I-Ioflupan).
ccRCC cell line KMRC-3 cells were injected orthotopically in mice, 2*10^6 cells in 40 ul PBS. After 13 weeks the mice were injected with 5.36 MBq ^123I-Ioflupan and analysed by SPECT/CT imaging after 1 h and 35 min.

For data set [5] the following is noted: in vivo; cited from earlier work.

`NCCc1ccc(O)c(O)c1` [unlabelled dopamine, dopamine]: in data set [1] (7 nM [3H]dopamine with 2 uM or 20 uM unlabelled dopamine for 5 min, FIG. 7A-B), the “[3H]dopamine uptake of primary ccRCC tumor cells in response to competitive unlabelled dopamine” value is listed as “decreased uptake”.
As for `c1ccc(CCCN2CCN(CCOC(c3ccccc3)c3ccccc3)CC2)cc1` [GBR12935], in data set [2], the “amount of [3H]-dopamine taken up by ccRCC cells in presence of inhibitor” value was “clearly diminish”.
For the compound `NCCc1ccc(O)c(O)c1` [[H^3]dopamine], the “uptake of [3H]dopamine by primary ccRCC cells compared to primary normal cortex cell” value in data set [1] (7 nM [3H]dopamine, 1-20 min, 37° C., FIG. 3 and FIG. 7A) was “enhanced uptake”. Further, the “uptake of [3H]dopamine by ccRCC cell lines” value in data set [3] is given as “take up”.
Turning to `COC(=O)[C@@H]1C2CCC(C[C@@H]1c1ccc(I)cc1)N2CCCF` (stereo partly drawn) [Ioflupane (^123I), [^123I] N-ω-fluoropropyl-2β-carbomethoxy-3β-(4-iodophenyl)nortropane], the results for the “uptake in contralateral kidney lacking injected tumor cells (SPECT/CT)” value in data set [4] and in data set [4] (listed as 123I-Ioflupan) were “no enhanced uptake” and “no signal could be detected”, respectively. For the same compound, the results for the “uptake in kidney orthotopically injected with KMRC-3 cells (SPECT/CT)” value in data set [4] and in data set [4] (listed as 123I-Ioflupan) were “clearly display enhanced uptake” and “uptake”, respectively.
On to `Fc1ccc(C(OCCC2CCN(Cc3ccc(I)cc3)CC2)c2ccc(F)cc2)cc1` [FMIP, 4-(2-(bis(4-fluorophenyl)methoxy)ethyl)-1-(4-iodobenzyl)piperidine], for which the “passage of the blood-brain barrier” value in data set [5] was “does not pass the blood-brain barrier”.
